Test: cn = amount concentration of the nth substance listed, in mol/dm3
Settings: 101.3 kPa, Liquid, Open capillary

[Cl-].[Cl-].[Cl-].[Cr+3] [chromium chloride] + O
binary diffusion coefficient [m2/s]
Settings | c1 = 0.005 | c1 = 0.008 | c1 = 0.01 | c1 = 0.02 | c1 = 0.03 | c1 = 0.05
298.15 K | 1.33e-09 | 1.2e-09 | 1.17e-09 | 1.1e-09 | 1.06e-09 | 1.03e-09
303.15 K | 1.85e-09 | 1.33e-09 | 1.31e-09 | 1.26e-09 | 1.2e-09 | 1.17e-09

From the NIST ThermoML archive (doi:10.1021/je050003x)
